The source of these data is patent US12514797B2, “Cosmetic and dermatological compositions” (Northeastern University, priority 2017, dated 2026).

In general, pKa refers to the pH at which an ionisable group is half protonated.

The nature of data set [1]: pH-dependent stability (MSMS analysis of pigment hydrolysis). It counts as physicochemical. Particulars: pH values approached and exceeded 10.00, mass addition of water.
Data set [2] is described as follows: Complex refractive index determination. The format is physicochemical. An excerpt:
(§1) Given its propensity to form granules in natural systems (FIG. 3, left) and its impressive UV-absorptive properties in vitro (FIG. 12, see Table 2 below), Xa was encapsulated within biodegradable particles designed to improve its durability and use as a topical UV-filter. The complex refractive index (RI) of Xa was experimentally determined as 1.92+0.014i. This uniquely high RI is important, especially when considering the design criteria of the particle based UV-filters. For instance, when assembled into nano- and micro-particles, Xa will scatter more light than it absorbs at diameters >200 nm, and this difference is maximized at sizes >[…] (FIG. 13). Because light scattering is an important feature for heat dissipation and reflection for coatings, it can be preferable to design particles with diameters ranging from 1-10 μm.

Data set [3] is described as follows: Electrochromic device (Xa in PEDOT:PSS) redox-dependent color switch, CIE 1931 chromaticity and transmittance. The format is physicochemical. To be noted: darkest yellow (O3) to red (R3) films, 555 nm. An excerpt:
Even though its exact mechanism for electron transfer remains unknown, phenoxazone-based materials are believed to undergo a reversible reduction to dihydroxanthommatin, gaining two electrons and two protons during its redox-dependent color change. These principles are used to show how the pigment stabilized in a polymer (PEDOT-PSS) matrix is capable of switching color in response to different applied voltages. When a double potential step from +1.5 V to −1.5 V vs ground was applied to the device, a redox-dependent color switch was observed (FIG. 11). The current required to switch from one colored state to another was plotted as a function of time upon application of a square-wave potential (FIG. 10). […] In each case, the switching time for each step was calculated as the time required to reach 95% of the maximum current.
The spectral tunability of these materials was also investigated by varying the ratio between PEDOT:PSS and pigment (FIG. 11). Different concentrations of xanthommatin (from 0.04 mg/ml to 0.16 mg/ml) were used while the amount of PEDOT:PSS remained constant. The color of each film activated at the different redox states was measured using the International Commission of Illumination (CIE) 1931 xy-chromaticity diagram. […]
Because the human eye is most sensitive at 555 nm, all transmittance values were calculated at this wavelength without any background correction.

Data set [4] is described as follows: Spectrophotometric pH titration, experimental determination of pKa. The format is physicochemical. To be noted: water titrated with 0.05 M NaOH, extrapolated from absorbance intensity at 430 and 360 nm as a function of pH. The method, then: The two observed pKas are indicated by the dashed lines at 5.50 and 8.40.
The purified xanthommatin (˜5 mg) was suspended in water (5.00 mL) and titrated to a starting pH of 2.08. The solution was then titrated with 0.05 M NaOH until the pH reached 10.37. During each point in the titration, the solution pH and absorbance was determined. pH levels were measured using a Fisher Scientific Accumet AP 110 pH meter (Fisher Scientific, Waltham, MA).
The pH-dependent color change of a […] solution of xanthommatin was monitored over a pH range of 1.90-10.30 using spectrophotometry. Three distinct patterns were associated with the increasing pH (see FIG. 8). At pH<3.00, the pigment was pale-yellow with a λmax˜430 nm. […] To determine whether the observed intensity in color was reversible at the lower pH values, the pH of xanthommatin was next cycled between acidic (2.00-3.00) and neutral (pH 6.00-8.00) conditions six times, and the absorbance intensity at 430 nm was followed. […]
If the presence or absence of protons were indeed influencing the resultant visible color, then individual acid dissociation constants (Ka) could be experimentally extrapolated and used to follow compositional changes in the biochrome as a function of pH. To test this, it was determined how absorbance intensities varied as a function of pH at both 430 and 360 nm (see FIG. 9). […]

Data set [5] in a line: Hydroxyl radical antioxidant capacity (HORAC) activity assay. The format is biochemical. To be noted: compared to commercially available antioxidant standard gallic acid. An excerpt: FIG. 14 illustrates the hydroxyl radical antioxidant capacity (HORAC) activity assay activity of Xa. The HORAC assay was used to evaluate the application of Xa as a natural antioxidant. Xa consumes hydroxyl radicals produced by the activation of the fenton reagent preventing the degradation of the fluorescein probe.
Oxygen derived species such as superoxide radical, hydrogen peroxide, singlet oxygen and hydroxyl radical are well known to be cytotoxic and have been implicated in the onset of a wide array of human diseases. These “compounds” are often referred to as reactive oxygen species (ROS). ROS normally exist in all aerobic cells in balance with biochemical antioxidants; however, this critical equilibrium can be disrupted due to excess ROS or antioxidant depletion and can result in oxidative stress. Antioxidants are used in cosmetics, pharmaceuticals, food and on the skin directly minimize the undesirable reactions resulting from oxidation caused by ROS. Commonly used antioxidants typically contain a combination of phenol, benzene and alkene functional groups. These key features work to inhibit the propagation of ROS through resonance stabilization of free radicals. […] The ability of particles and pigments (free and encapsulated) to […] ROS are measured using the colorimetric hydroxyl radical antioxidant capacity (HORAC) assay (FIG. 14). […]

Data set [6] is described as follows: UV absorbance in vitro, SPF calculated using the Mansur equation, comparison to known UV-filters. The format is physicochemical. How it is done:
FIG. 12 provides absorbance curves (see top graph) and corresponding comparator values (see table) of Xa to known UV-filters, avo- and oxy-benzone. […] X−1 represents synthetic Xa; X−2 represents Xa extracted from squid at 0.10 mM. SPF was calculated using the Mansur equation and critical wavelength was determined as the wavelength at which 90% of the absorbance curve resides.
Xa is the simplest and most common ommochrome and is formed (along with the reduced dihydro-xanthommatin and ommatin subclasses) via the condensation of two hydroxykynurenine residues in the kynurenine pathway of tryptophan metabolism. Once synthesized, Xa is stabilized within granules (diameter 530 nm) that are resistant to photodegradation. An added predicted functionality, although largely unexplored in vitro and in vivo, is that Xa behaves as a free-radical scavenger. Together, with the data presented in FIG. 12 showing that Xa absorbs UV radiation ˜2× higher than current chemical filters at the same concentrations, it is expected that Xa and Xa-based materials can function as UV-filters that can not only protect against solar irradiation but can also be used in preventative skin care as free-radical scavengers (while maintaining biocompatibility).
as §1

Consider `NC(CC(=O)c1cccc2oc3cc(=O)c4[nH]c(C(=O)O)cc(=O)c4c-3nc12)C(=O)O` (stereo not shown) [Xa, xanthommatin], for which the pigment hydrolysis entry in data set [1] is given as “pigment hydrolysis occurred”. In data set [2], the “complex refractive index (RI)” value is listed as 1.92+0.014i. Further, the “optical contrast (ΔT %)” value in data set [3] amounted to 25.4%. The pKa in data set [4] is 5.5. In addition, the results for the HORAC activity result in data set [5] and in data set [5] (listed as Xanthommatin) were “enhanced activity in comparison to commercially available standard gallic acid” and “enhanced activity when compared to commercially available antioxidant gallic acid”, respectively. Moreover, the results for the SPF in vitro in data set [6] (0.062 mM), in data set [6] (0.125 mM) and in data set [6] (0.250 mM) were 3, 14 and 38, respectively. Besides, the “UV radiation absorption relative to current chemical filters” value in data set [6] (same concentrations, FIG. 12 comparators avo- and oxy-benzone) is on record as roughly 2 ×.
